# In PMC3559007 (Neuron, 2013):
# Residue numbers refer to the chain shown, from its start. Like-named read-outs stand apart in the source and are kept apart here.
# Columns and labels:
# human Hv1 channel [1] = target: T1, human Hv1 channel (Homo sapiens, UniProt Q96D96); test: Inside-out patch clamp of proton currents, Xenopus oocytes expressing human Hv1; type: cell-based; conditions: for Inhibition of Hv1 proton current compared with 2GBI: 200 µM intracellular, inside-out patch, +120 mV
# T1 sequence (Q96D96 1-273): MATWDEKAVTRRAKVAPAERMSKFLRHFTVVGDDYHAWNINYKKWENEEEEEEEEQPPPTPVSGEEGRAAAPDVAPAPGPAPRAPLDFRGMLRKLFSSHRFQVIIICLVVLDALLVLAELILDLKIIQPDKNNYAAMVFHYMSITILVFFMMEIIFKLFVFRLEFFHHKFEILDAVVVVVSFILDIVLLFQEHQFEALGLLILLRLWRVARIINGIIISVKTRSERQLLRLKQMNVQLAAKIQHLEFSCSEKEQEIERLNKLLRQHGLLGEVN
# Hv1 F150A = target: T2, Hv1 F150A (Homo sapiens, UniProt Q96D96, F150A); test: Inside-out patch clamp, inhibition of Hv1 F150A mutant; type: cell-based; conditions: 1 µM 2GBI, 500 µM guanidinium, 7.9 mM magnesium, intracellular
# T2 sequence (Q96D96 1-273 F150A): T1 sequence (Q96D96 1-273) with F150A
# human Hv1 channel [2] = target: T1, human Hv1 channel; conditions: cited from earlier work; for Inhibition of Hv1 channel by intracellular quaternary ammonium ions: ref Musset et al., 2011, Ramsey et al., 2006
# [3] = system: F150A-WT linked Hv1 heterodimers; test: Inside-out patch clamp, partial block of linked F150A-WT Hv1 heterodimers; type: cell-based, human; conditions: 2 µM 2GBI, +120 mV
compound,measurement,setting,value
"Cc1nc(NC(=N)N)nc2ccccc12 [Compound 9, 2-guanidino-4-methylquinazoline]",Inhibition of Hv1 proton current compared with 2GBI,human Hv1 channel [1],not as effective as 2GBI
"CC(=O)N(C(=N)NC(=N)N)c1ccccc1 [Compound 10, N-(guanidino-imino-methyl)-N-phenylacetamide]",Inhibition of Hv1 proton current compared with 2GBI,human Hv1 channel [1],not as effective as 2GBI
"N=C(N)N [Compound 1, Guanidine]",Concentration range effective at inhibiting proton currents,human Hv1 channel [1],millimolar concentration range
same,Difference in binding affinity between F150A and wild type channels,Hv1 F150A,much smaller difference
same,Inhibition of Hv1 and effect on activation curve,"human Hv1 channel [2]; ref Tombola et al., 2008",inhibit Hv1 without shifting the channel’s activation curve
"N=C(N)Nc1nc2ccccc2[nH]1 [Compound 7, 2-guanidinobenzimidazole]",Total inhibition of the initial current,[3],~ 50%
same,Estimated fraction of wild type subunits blocked,[3]; estimated from dissociation constants of homodimers,~6%
"CN(C)C(=N)N=C(N)N [Compound 8, metformin, reference compound]",Inhibition of Hv1 proton current compared with 2GBI,human Hv1 channel [1],not as effective as 2GBI
"N=C(N)Nc1nc2ccccc2o1 [Compound 11, 1-(1,3-benzoxazol-2-yl)guanidine]",IC50,human Hv1 channel [1],~9 mM
C[N+](C)(C)C [TMA^+],Inhibition of Hv1 channel by intracellular quaternary ammonium ions,human Hv1 channel [2],do not inhibit
"CC[N+](CC)(CC)CC [TEA^+, tetraethylammonium]",Inhibition of Hv1 channel by intracellular quaternary ammonium ions,human Hv1 channel [2],do not inhibit
"[Mg+2] [magnesium, reference compound]",IC50,"human Hv1 channel [1]; wild type Hv1, GBOZ curve extrapolated above solubility limit",~9 mM
same,Difference in binding affinity between F150A and wild type channels,Hv1 F150A,no difference
"N=C(N)Nc1nc2ccccc2s1 [Compound 12, 1-(1,3-benzothiazol-2-yl)guanidine]",Inhibition of Hv1 proton current compared with 2GBI,human Hv1 channel [1],almost as effectively as 2GBI
